# Assay results from US20240269139A1, “COMPOUNDS FOR TARGETED PROTEIN DEGRADATION OF KINASES” (DANA-FARBER CANCER INSTITUTE, INC., priority 2020, published 2024).
# Read-outs that look alike come from different tables or passages of the source.
# What was measured:
# Type in all cases: cell-based
# [1] = target: protein kinases (human kinome) (Homo sapiens, UniProt P35790); conditions: CHKA P35790
# [2] = target: protein kinases (human kinome) (Homo sapiens, UniProt Q05397)
# [3] = target: T1, protein kinases (human kinome) (Homo sapiens, UniProt Q8IVH8); conditions: for logFC: MAP4K3 Q8IVH8; for logFC MAP4K3: MAP4K3 Q81VH8
# T1 sequence (Q8IVH8 1-894): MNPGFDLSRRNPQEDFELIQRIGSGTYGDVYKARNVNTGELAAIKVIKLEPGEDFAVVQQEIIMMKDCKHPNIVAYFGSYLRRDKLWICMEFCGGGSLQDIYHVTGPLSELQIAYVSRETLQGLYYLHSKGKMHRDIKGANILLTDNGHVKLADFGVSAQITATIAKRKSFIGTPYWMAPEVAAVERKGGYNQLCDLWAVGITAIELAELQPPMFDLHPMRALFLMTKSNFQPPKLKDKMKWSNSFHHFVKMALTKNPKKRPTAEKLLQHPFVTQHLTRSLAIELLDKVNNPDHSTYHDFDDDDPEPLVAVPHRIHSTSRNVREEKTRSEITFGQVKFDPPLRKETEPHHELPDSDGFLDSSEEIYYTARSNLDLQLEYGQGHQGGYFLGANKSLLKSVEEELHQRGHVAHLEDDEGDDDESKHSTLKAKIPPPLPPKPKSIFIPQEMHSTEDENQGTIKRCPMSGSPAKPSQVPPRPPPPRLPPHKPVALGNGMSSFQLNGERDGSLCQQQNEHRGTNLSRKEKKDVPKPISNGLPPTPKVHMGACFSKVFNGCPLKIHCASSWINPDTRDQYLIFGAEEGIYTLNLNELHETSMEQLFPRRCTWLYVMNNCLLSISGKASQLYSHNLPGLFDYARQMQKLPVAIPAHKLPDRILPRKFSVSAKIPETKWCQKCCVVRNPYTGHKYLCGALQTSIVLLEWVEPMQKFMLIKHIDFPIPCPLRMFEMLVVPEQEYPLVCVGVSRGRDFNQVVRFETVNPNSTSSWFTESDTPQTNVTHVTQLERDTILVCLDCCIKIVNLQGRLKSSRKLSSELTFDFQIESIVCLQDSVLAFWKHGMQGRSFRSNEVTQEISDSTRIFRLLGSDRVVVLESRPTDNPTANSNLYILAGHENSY
# [4] = target: protein kinases (human kinome) (Homo sapiens, UniProt P49840); conditions: GSK3A P49840; experiment wp076
# protein kinases (human kinome) (Homo sapiens, UniProt P49840), sequence (P49840 whole entry): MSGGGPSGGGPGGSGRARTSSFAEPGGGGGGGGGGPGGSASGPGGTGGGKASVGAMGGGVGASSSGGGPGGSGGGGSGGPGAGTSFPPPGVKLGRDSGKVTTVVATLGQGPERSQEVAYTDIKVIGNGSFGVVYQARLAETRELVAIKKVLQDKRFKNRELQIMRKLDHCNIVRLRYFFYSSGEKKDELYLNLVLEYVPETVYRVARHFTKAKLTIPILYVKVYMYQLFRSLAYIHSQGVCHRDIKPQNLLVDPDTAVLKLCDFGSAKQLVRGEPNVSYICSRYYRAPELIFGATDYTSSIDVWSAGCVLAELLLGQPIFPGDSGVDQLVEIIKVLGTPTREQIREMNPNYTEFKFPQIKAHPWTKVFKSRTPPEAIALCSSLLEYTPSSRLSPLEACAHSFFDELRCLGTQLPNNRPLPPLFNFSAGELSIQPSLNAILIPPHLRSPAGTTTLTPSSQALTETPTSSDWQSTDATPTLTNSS
# protein kinases (human kinome) (Homo sapiens, UniProt Q05397), sequence (Q05397 whole entry): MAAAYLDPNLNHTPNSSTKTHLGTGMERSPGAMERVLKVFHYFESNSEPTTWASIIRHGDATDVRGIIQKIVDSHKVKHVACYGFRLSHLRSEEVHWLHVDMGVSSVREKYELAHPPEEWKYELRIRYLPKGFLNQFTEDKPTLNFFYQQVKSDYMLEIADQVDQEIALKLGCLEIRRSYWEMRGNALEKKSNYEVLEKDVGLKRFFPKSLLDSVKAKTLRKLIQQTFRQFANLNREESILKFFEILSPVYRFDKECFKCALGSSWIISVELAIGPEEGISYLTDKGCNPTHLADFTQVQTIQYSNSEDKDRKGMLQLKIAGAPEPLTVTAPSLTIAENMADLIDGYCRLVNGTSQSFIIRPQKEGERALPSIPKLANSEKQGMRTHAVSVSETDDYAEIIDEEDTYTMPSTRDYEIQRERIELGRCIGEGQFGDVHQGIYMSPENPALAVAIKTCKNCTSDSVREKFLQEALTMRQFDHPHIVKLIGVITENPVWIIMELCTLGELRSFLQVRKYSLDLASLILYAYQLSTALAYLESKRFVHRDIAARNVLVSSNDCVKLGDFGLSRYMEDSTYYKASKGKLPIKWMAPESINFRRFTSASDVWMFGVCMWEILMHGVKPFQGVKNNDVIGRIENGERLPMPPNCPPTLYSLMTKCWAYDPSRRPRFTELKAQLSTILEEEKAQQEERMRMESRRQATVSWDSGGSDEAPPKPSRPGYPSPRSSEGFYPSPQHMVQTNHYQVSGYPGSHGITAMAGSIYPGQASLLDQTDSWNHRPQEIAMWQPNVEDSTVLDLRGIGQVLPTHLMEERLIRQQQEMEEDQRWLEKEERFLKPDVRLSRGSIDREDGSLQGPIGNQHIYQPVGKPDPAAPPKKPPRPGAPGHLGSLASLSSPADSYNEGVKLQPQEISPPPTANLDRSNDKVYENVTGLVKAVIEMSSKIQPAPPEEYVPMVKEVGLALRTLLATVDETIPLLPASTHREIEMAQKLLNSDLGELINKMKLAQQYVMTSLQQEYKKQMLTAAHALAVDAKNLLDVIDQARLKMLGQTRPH
# protein kinases (human kinome) (Homo sapiens, UniProt P35790), sequence (P35790 whole entry): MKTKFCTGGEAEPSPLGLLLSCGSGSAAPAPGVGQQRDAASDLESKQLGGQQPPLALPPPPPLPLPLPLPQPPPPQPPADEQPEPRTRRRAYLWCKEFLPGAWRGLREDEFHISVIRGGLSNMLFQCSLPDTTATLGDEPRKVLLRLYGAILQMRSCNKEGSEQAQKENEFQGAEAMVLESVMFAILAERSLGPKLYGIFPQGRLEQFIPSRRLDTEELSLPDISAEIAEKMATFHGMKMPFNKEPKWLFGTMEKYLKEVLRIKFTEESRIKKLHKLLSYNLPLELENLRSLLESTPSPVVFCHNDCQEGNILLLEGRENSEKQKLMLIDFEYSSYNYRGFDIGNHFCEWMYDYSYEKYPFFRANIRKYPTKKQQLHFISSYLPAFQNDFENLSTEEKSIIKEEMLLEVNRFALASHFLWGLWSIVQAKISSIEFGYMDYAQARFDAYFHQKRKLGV
compound,measurement,setting,value
"Cc1ccc(NC(=O)c2cccc(C(F)(F)F)c2)cc1N1Cc2cnc(Nc3ccc(N4CCN(Cc5cn(CCCCCOc6cccc7c6C(=O)N(C6CCC(=O)NC6=O)C7=O)nn5)CC4)nc3)nc2N(C)C1=O (stereo not drawn) [DB0646, N-(3-(7-((6-(4-((1-(5-((2-(2,6-Dioxopiperidin-3-yl)-1,3-dioxoisoindolin-4-yl)oxy)pentyl)-1H-1,2,3-triazol-4-yl)methyl)piperazin-1-v)pyridin-3-yl)amino)-1-methyl-2-oxo-1,4-dihydropyrimido[4,5-d]pyrimidin-3(2H)-yl)-4-methylphenyl)-3-(trifluoromethyl)benzamide]",logFC,[1]; experiment wp152,−0.3979
same,logFC,"[1]; experiment wp160, 8 hr",−0.4303
same,logFC PTK2,"[2]; Accession Q05397, experiment wp105, direction down",−0.5575
same,logFC PTK2,"[2]; PTK2 Q05397, experiment wp105",−0.5575
same,logFC,"[2]; PTK2 Q05397, experiment wp114",−0.5538
same,logFC PTK2,"[2]; PTK2 Q05397, experiment wp114",−0.5538
same,logFC,"[2]; PTK2 Q05397, experiment wp172",−0.8047
same,logFC PTK2,"[2]; PTK2 Q05397, experiment wp172",−0.8047
CC(C)S(=O)(=O)c1ccccc1Nc1nc(Nc2ccc(N3CCN(CCOCCOCCNC(=O)CNc4cccc5c4C(=O)N(C4CCC(=O)NC4=O)C5=O)CC3)cc2)ncc1Cl (stereo not drawn) [TL12.186],logFC,[3]; experiment wp131,−0.6275
same,logFC,[3]; experiment wp137,−0.3997
same,logFC MAP4K3,[3]; experiment wp131,−0.6275
same,logFC MAP4K3,[3]; experiment wp137,−0.3997
same,logFC,[1]; experiment wp131,−0.3954
Cc1ccc(NC(=O)c2cccc(C(F)(F)F)c2)cc1N1Cc2cnc(Nc3ccc(N4CCN(CCCOc5cccc6c5C(=O)N(C5CCC(=O)NC5=O)C6=O)CC4)nc3)nc2N(C)C1=O (stereo not drawn) [DB0662],logFC,[1]; experiment wp168,−0.3222
Cc1ncsc1-c1ccc([C@H](C)NC(=O)[C@@H]2C[C@@H](O)CN2C(=O)[C@@H](NC(=O)CCOCCOCCN2CCN(c3ccc(Nc4ncc(Cl)c(Nc5ccccc5S(=O)(=O)C(C)C)n4)cc3)CC2)C(C)(C)C)cc1 [FMF.06.098.1],logFC,[3]; experiment wp108,−0.814
same,logFC,[3]; experiment wp114,−0.4146
same,logFC,[3]; experiment wp131,−0.7898
same,logFC MAP4K3,[3]; experiment wp108,−0.814
same,logFC MAP4K3,[3]; experiment wp114,−0.4146
same,logFC MAP4K3,[3]; experiment wp131,−0.7898
same,logFC,[1]; experiment wp108,−0.3716
same,logFC,[1]; experiment wp131,−0.4457
same,logFC,"[2]; PTK2 Q05397, experiment wp114",−0.9477
same,logFC PTK2,"[2]; PTK2 Q05397, experiment wp114",−0.9477
O=C1CCC(N2C(=O)c3cccc(NCCCCCCCCN4CCC(NC(=O)c5[nH]ncc5NC(=O)c5c(Cl)cccc5Cl)CC4)c3C2=O)C(=O)N1 (stereo not drawn) [MFH.5.126.1],logFC,[1]; experiment wp076,−0.4653
same,logFC,[4],−0.7531
same,logFC GSK3A,[4],−0.7531
